Numbers after ± are expanded uncertainties.
Experiment: activity coefficient (dimensionless); of the first substance listed, at infinite dilution; xn = mol fraction of the nth substance listed
Conditions: 100 kPa, Liquid, Chromatography, x1 = 0

Structure (SMILES)	activity coefficient (308.15 K)	activity coefficient (318.15 K)	activity coefficient (328.15 K)	activity coefficient (338.15 K)	activity coefficient (348.15 K)	activity coefficient (358.15 K)	activity coefficient (368.15 K)
CCOC(C)(C)C [2-ethoxy-2-methylpropane] + CCCC[n+]1ccc(C#N)cc1.O=S(=O)([N-]S(=O)(=O)C(F)(F)F)C(F)(F)F	8.97 ± 0.77	8.89 ± 0.77	8.84 ± 0.76	8.8 ± 0.76	8.78 ± 0.76	8.73 ± 0.75	8.68 ± 0.75
CCC(C)(C)OC [2-methoxy-2-methylbutane] + CCCC[n+]1ccc(C#N)cc1.O=S(=O)([N-]S(=O)(=O)C(F)(F)F)C(F)(F)F	4.33 ± 0.37	4.48 ± 0.39	4.62 ± 0.4	4.76 ± 0.41	4.88 ± 0.42	5.01 ± 0.43	5.13 ± 0.44
COC(C)(C)C [2-methoxy-2-methylpropane] + CCCC[n+]1ccc(C#N)cc1.O=S(=O)([N-]S(=O)(=O)C(F)(F)F)C(F)(F)F	3.01 ± 0.26	3.13 ± 0.27	3.24 ± 0.28	3.35 ± 0.29	3.45 ± 0.3	3.56 ± 0.31	3.66 ± 0.32
CC(C)CO [2-methyl-1-propanol] + CCCC[n+]1ccc(C#N)cc1.O=S(=O)([N-]S(=O)(=O)C(F)(F)F)C(F)(F)F	3.2 ± 0.28	2.93 ± 0.25	2.7 ± 0.23	2.5 ± 0.22	2.32 ± 0.2	2.18 ± 0.19	2.04 ± 0.18
CC(C)(C)O [2-methylpropan-2-ol] + CCCC[n+]1ccc(C#N)cc1.O=S(=O)([N-]S(=O)(=O)C(F)(F)F)C(F)(F)F	2.28 ± 0.2	2.14 ± 0.18	2.01 ± 0.17	1.9 ± 0.16	1.8 ± 0.15	1.71 ± 0.15	1.63 ± 0.14
CCC(C)CC [3-methylpentane] + CCCC[n+]1ccc(C#N)cc1.O=S(=O)([N-]S(=O)(=O)C(F)(F)F)C(F)(F)F	30.7 ± 2.7	28.4 ± 2.5	26.4 ± 2.3	24.7 ± 2.1	23.1 ± 2	21.7 ± 1.9	20.6 ± 1.8
C=C(C)c1ccccc1 [(1-methylethenyl)benzene] + CCCC[n+]1ccc(C#N)cc1.O=S(=O)([N-]S(=O)(=O)C(F)(F)F)C(F)(F)F	1.94 ± 0.17	2.09 ± 0.18	2.24 ± 0.19	2.4 ± 0.21	2.55 ± 0.22	2.7 ± 0.23	2.86 ± 0.25
CC(C)=O [acetone] + CCCC[n+]1ccc(C#N)cc1.O=S(=O)([N-]S(=O)(=O)C(F)(F)F)C(F)(F)F	0.377 ± 0.039	0.403 ± 0.04	0.427 ± 0.042	0.453 ± 0.043	0.479 ± 0.045	0.505 ± 0.046	0.531 ± 0.048
CC#N [acetonitrile] + CCCC[n+]1ccc(C#N)cc1.O=S(=O)([N-]S(=O)(=O)C(F)(F)F)C(F)(F)F	0.432 ± 0.042	0.449 ± 0.043	0.466 ± 0.044	0.483 ± 0.045	0.5 ± 0.046	0.516 ± 0.047	0.531 ± 0.048
c1ccccc1 [benzene] + CCCC[n+]1ccc(C#N)cc1.O=S(=O)([N-]S(=O)(=O)C(F)(F)F)C(F)(F)F	1.07 ± 0.09	1.12 ± 0.09	1.17 ± 0.1	1.22 ± 0.1	1.28 ± 0.11	1.32 ± 0.11	1.38 ± 0.12
CCCCO [butan-1-ol] + CCCC[n+]1ccc(C#N)cc1.O=S(=O)([N-]S(=O)(=O)C(F)(F)F)C(F)(F)F	3.19 ± 0.28	2.94 ± 0.25	2.74 ± 0.24	2.56 ± 0.22	2.41 ± 0.21	2.28 ± 0.2	2.15 ± 0.19
CCC(C)O (stereo not drawn) [butan-2-ol] + CCCC[n+]1ccc(C#N)cc1.O=S(=O)([N-]S(=O)(=O)C(F)(F)F)C(F)(F)F	2.69 ± 0.23	2.5 ± 0.2	2.33 ± 0.2	2.18 ± 0.19	2.06 ± 0.18	1.94 ± 0.17	1.84 ± 0.16
CCCC=O [butanal] + CCCC[n+]1ccc(C#N)cc1.O=S(=O)([N-]S(=O)(=O)C(F)(F)F)C(F)(F)F	0.7 ± 0.06	0.738 ± 0.062	0.773 ± 0.065	0.811 ± 0.068	0.848 ± 0.071	0.884 ± 0.073	0.917 ± 0.076
C1CCCCCC1 [cycloheptane] + CCCC[n+]1ccc(C#N)cc1.O=S(=O)([N-]S(=O)(=O)C(F)(F)F)C(F)(F)F	22.3 ± 1.9	20.6 ± 1.8	19.1 ± 1.7	17.8 ± 1.5	16.7 ± 1.4	15.6 ± 1.3	14.8 ± 1.3
